The source made the active and inactive calls. The rule behind the calls is not given here.
What was measured:
Format in all cases: functional, organism-based
Acodontaster conspicuus [1] = experiment: Antimicrobial activity against Acodontaster conspicuus McM13.3 at 20 degC after 48 hrs by paper disk method
Acodontaster conspicuus [2] = experiment: Antimicrobial activity against Acodontaster conspicuus McM32.2 at 20 degC after 48 hrs by paper disk method
Acodontaster conspicuus [3] = experiment: Antimicrobial activity against Acodontaster conspicuus McM11.5 at 20 degC after 72 hrs by paper disk method
Acodontaster conspicuus [4] = experiment: Antimicrobial activity against Acodontaster conspicuus McM18.1 at 20 degC after 48 hrs by paper disk method

`CC(/C=C/[C@@H](C)[C@H]1C[C@@H](O)C2=C3C[C@H](O)C4C[C@@H](O)CC[C@]4(C)[C@H]3CC[C@@]21C)CO` (some centres not stated) was tested, and the Activity (Acodontaster conspicuus [1]) was “Active”.

With `C=C(CC[C@@H](C)[C@H]1C[C@@H](O)[C@@H]2[C@]1(C)CC[C@@H]1[C@@]3(C)CC[C@H](O)[C@H](O)[C@@H]3[C@@H](O)C[C@]12O)C(C)CO[C@@H]1OC[C@@H](O)[C@H](O)[C@H]1O[C@@H]1OC[C@@H](O)[C@H](O)[C@H]1OC` (some centres not stated) the Activity (Acodontaster conspicuus [2]) was “Active”.

For `CC(C)C[C@@H]1O[C@H]1[C@@](C)(O)[C@H]1CC[C@H]2[C@@H]3C[C@H](O[C@@H]4O[C@H](C)[C@@H](O)[C@H](O[C@@H]5OC[C@@H](O[C@@H]6O[C@H](CO)[C@H](O)[C@H](O)[C@H]6O[C@@H]6O[C@H](C)[C@@H](O)[C@H](O)[C@H]6O)[C@H](O)[C@H]5O[C@H]5O[C@@H](C)[C@H](O)[C@@H](O)[C@@H]5O)[C@H]4O)[C@H]4C[C@@H](OS(=O)(=O)O)CC[C@]4(C)C3=CC[C@]12C`, the Activity (Acodontaster conspicuus [3]) was “inactive”, the Activity (Acodontaster conspicuus [2]) was “inactive” and the Activity (Acodontaster conspicuus [4]) was “inactive”. The Activity (Acodontaster conspicuus [1]) was “inactive”.

In the case of `CC(C)[C@@H](CCO[C@@H]1OC[C@@H](O)[C@H](O)[C@H]1O[C@@H]1OC[C@@H](O)[C@H](O)[C@H]1O)CC[C@@H](C)[C@H]1C[C@@H](O)[C@@H]2[C@]1(C)CC[C@@H]1[C@@]3(C)CC[C@H](O)[C@H](O)[C@@H]3[C@@H](O)C[C@]12O`, the Activity (Acodontaster conspicuus [2]) is reported as “Active” and the Activity (Acodontaster conspicuus [1]) is reported as “Active”.

In the case of `CC(C)/C(=C/CO[C@@H]1OC[C@@H](O)[C@H](O)[C@H]1O)CC[C@@H](C)[C@H]1C[C@@H](O)C2=C3C[C@H](O)[C@H]4C[C@@H](O)CC[C@]4(C)[C@H]3CC[C@@]21C`, the Activity (Acodontaster conspicuus [2]) is reported as “Active” and the Activity (Acodontaster conspicuus [1]) is reported as “Active”.

`CC(C)[C@@H](O)/C=C/[C@@H](C)[C@H]1C[C@@H](O)[C@@H]2[C@]1(C)CC[C@H]1[C@@]2(O)C[C@H](O)C2C[C@@H](O)CC[C@@]21C` (some centres not stated) was tested, and the Activity (Acodontaster conspicuus [2]) was “Active” and the Activity (Acodontaster conspicuus [1]) was “Active”.

With `CO[C@H]1[C@H](O[C@H]2[C@H](OC[C@@H](C)[C@H](C)/C=C/[C@@H](C)[C@H]3C[C@@H](O)[C@@H]4[C@]3(C)CC[C@@H]3[C@@]5(C)CC[C@H](O)[C@H](O)[C@@H]5[C@@H](O)C[C@]34O)OC[C@@H](O)[C@@H]2O)OC[C@@H](O)[C@@H]1O` the Activity (Acodontaster conspicuus [2]) was “Active” and the Activity (Acodontaster conspicuus [1]) was “Active”.

In the case of `CC(C)CC(=O)C[C@@](C)(O)[C@H]1CC[C@H]2[C@@H]3C[C@H](O[C@@H]4O[C@H](C)[C@@H](O)[C@H](O[C@@H]5OC[C@@H](O[C@@H]6O[C@H](CO)[C@H](O)[C@H](O)[C@H]6O[C@@H]6O[C@H](C)[C@@H](O)[C@H](O)[C@H]6O)[C@H](O)[C@H]5O[C@H]5O[C@@H](C)[C@H](O)[C@@H](O)[C@@H]5O)[C@H]4O)[C@H]4C[C@@H](OS(=O)(=O)O)CC[C@]4(C)C3=CC[C@@]21C`, the Activity (Acodontaster conspicuus [3]) is reported as “inactive”, the Activity (Acodontaster conspicuus [2]) is reported as “inactive” and the Activity (Acodontaster conspicuus [4]) is reported as “inactive”. The Activity (Acodontaster conspicuus [1]) was “inactive”.

`C[C@H](/C=C/[C@@H](C)[C@H]1C[C@@H](O)C2=C3C[C@H](O)C4C[C@@H](O)CC[C@]4(C)[C@H]3CC[C@@]21C)[C@H](C)CO` (some centres not stated) was tested, and the Activity (Acodontaster conspicuus [2]) was “Active” and the Activity (Acodontaster conspicuus [1]) was “Active”.

With `CO[C@H]1[C@H](O[C@H]2[C@H](OC[C@@H](C)[C@H](C)/C=C/[C@@H](C)[C@H]3C[C@@H](O)C4=C5C[C@H](O)[C@H]6C[C@@H](O)CC[C@]6(C)[C@H]5CC[C@@]43C)OC[C@@H](O)[C@@H]2O)OC[C@@H](O)[C@@H]1O` the Activity (Acodontaster conspicuus [3]) was “Active”.

With `CO[C@H]1[C@H](O[C@H]2[C@H](OCC[C@H](CC[C@@H](C)[C@H]3C[C@@H](O)[C@@H]4[C@]3(C)CC[C@@H]3[C@@]5(C)CC[C@H](O)[C@H](O)[C@@H]5[C@@H](O)C[C@]34O)C(C)C)OC[C@@H](O)[C@@H]2O)OC[C@@H](O)[C@@H]1O` the Activity (Acodontaster conspicuus [2]) was “Active” and the Activity (Acodontaster conspicuus [1]) was “Active”.

With `CC(C)[C@@H](C)C(=O)C[C@@](C)(O)[C@H]1CC[C@H]2[C@@H]3C[C@H](O[C@@H]4O[C@H](C)[C@@H](O)[C@H](O[C@@H]5OC[C@@H](O[C@@H]6O[C@H](CO)[C@H](O)[C@H](O)[C@H]6O[C@@H]6O[C@H](C)[C@@H](O)[C@H](O)[C@H]6O)[C@H](O)[C@H]5O[C@H]5O[C@@H](C)[C@H](O)[C@@H](O)[C@@H]5O)[C@H]4O)[C@H]4C[C@@H](OS(=O)(=O)O)CC[C@]4(C)C3=CC[C@@]21C` the Activity (Acodontaster conspicuus [3]) was “inactive”, the Activity (Acodontaster conspicuus [2]) was “inactive” and the Activity (Acodontaster conspicuus [4]) was “inactive”. The Activity (Acodontaster conspicuus [1]) was “inactive”.
